The compounds below were run on HBV rcDNA in HepDE19 cells (assay: HepDE19 assay with bDNA quantitation of HBV rcDNA). Settings: Hepatitis B virus, HepDE19, 168 h, inhibition of rcDNA formation in HepDE19 cells (HepG2 derived), Tet-free medium, 7 day incubation, Quantigene 2.0 bDNA readout, top concentration 25 μM; read-out: DE-19bDNA EC50.
Assay type: cell-based, hepatitis B virus (HBV)
Protocol: HepDE19 Assay with bDNA Quantitation of HBV rcDNA:
HepDE19 cell culture system is a HepG2 (human hepatocarcinoma) derived cell line that supports HBV DNA replication and cccDNA formation in a tetracycline (Tet)-regulated manner and produces HBV rcDNA and a detectable reporter molecule dependent on the production and maintenance of cccDNA (Guo, et al., 2007, J. Virol. 81:12472-12484).
HepDE19 (50,000 cells/well) were plated in 96-well collagen-coated tissue-culture treated microtiter plates in DMEM/F12 medium supplemented with 10% fetal bovine serum, 1% penicillin-streptomycin and 1 μg/mL tetracycline and incubated in a humidified incubator at 37° C. and 5% CO2 overnight. Next day, the cells were switched to fresh medium without tetracycline and incubated for 4 hours at 37° C. and 5% CO2. The cells were treated with fresh Tet-free medium with compounds at concentrations starting at 25 μM and a serial, […], 8-point, titration series in duplicate. The final DMSO concentration in the assay was 0.5%. The plates were incubated for 7 days in a humidified incubator at 37° C. and 5% CO2. Following a 7 day-incubation, the level of rcDNA present in the inhibitor-treated wells was measured using a Quantigene 2.0 bDNA assay kit (Affymetrix, Santa Clara, Calif.) with HBV specific custom probe set and manufacturers instructions. Concurrently, the effect of compounds on cell viability was assessed using replicate plates, plated at a density of 5,000 cells/well and incubated for 4 days, to determine the ATP content as a measure of cell viability using the cell-titer glo reagent (CTG; Promega Corporation, Madison, Wis.) as per manufacturer's instructions. The plates were read using a Victor luminescence plate reader (PerkinElmer Model 1420 Multilabel counter) and the relative luminescence units (RLU) data generated from each well was calculated as % inhibition of the untreated control wells and analyzed using XL-Fit module in Microsoft Excel to determine EC50 and EC90 (bDNA) and CC50 (CTG) values using a 4-parameter curve fitting algorithm.
Representative compounds of the disclosure were tested for their abilities to inhibit formation of relaxed circular DNA (rcDNA) in a HepDE19 assay, as described elsewhere herein.

| Structure (SMILES) | EC50 [nM] |
| --- | --- |
| CN(C(=O)Nc1ccc(F)c(C#N)c1)[C@@H]1COCc2[nH]c(=O)c3cc(F)ccc3c21 (single isomer, unassigned) [Compound 64] | 20 |
| O=C(Nc1ccc(F)c(Cl)c1)N[C@@H]1COCc2[nH]c(=O)c3cc(F)ccc3c21 (single isomer, unassigned) [Compound 67] | 90 |
| O=C(Nc1ccc(F)c(Cl)c1)N[C@@H]1COCc2[nH]c(=O)c3cc(F)c(F)cc3c21 (single isomer, unassigned) [Compound 68] | 30 |
| Cc1cc(NC(=O)N(C)[C@@H]2COCc3[nH]c(=O)c4cc(F)c(F)cc4c32)ccc1F (single isomer, unassigned) [Compound 69] | 10 |
| CN(C(=O)Nc1ccc(F)c(C#N)c1)[C@@H]1COCc2[nH]c(=O)c3cc(F)c(F)cc3c21 (single isomer, unassigned) [Compound 70] | 10 |
| CN(C(=O)Nc1ccc(F)c(Cl)c1)[C@H]1COCc2[nH]c(=O)c3cc(F)c(F)cc3c21 (single isomer, unassigned) [Compound 71] | 210 |
| CN(C(=O)Nc1ccc(F)c(Cl)c1)[C@@H]1COCc2[nH]c(=O)c3cc(F)c(F)cc3c21 (single isomer, unassigned) [Compound 72] | 10 |
| CN(C(=O)Nc1ccc(F)c(Cl)c1)C1CCCc2[nH]c(=O)c3c(c21)COCC3 (single isomer, unassigned) [Compound 79, 3-(3-Chloro-4-fluorophenyl)-1-methyl-1-(5-oxo-3,4,5,6,7,8,9,10-octahydro-1H-pyrano[4,3-c]quinolin-10-yl)urea] | ≥ 25000 |
| CCN(C(=O)Nc1ccc(F)c(Cl)c1)[C@@H]1COCc2[nH]c(=O)c3cc(F)ccc3c21 (single isomer, unassigned) [Compound 87] | 10 |
| CCN(C(=O)Nc1ccc(F)c(Cl)c1)[C@@H]1COCc2[nH]c(=O)c3cc(F)c(F)cc3c21 (single isomer, unassigned) [Compound 88] | 10 |

Same assay, conditions: inhibition of rcDNA formation in HepDE19 cells (HepG2 derived), Tet-free medium, 7 day incubation, Quantigene 2.0 bDNA readout, top concentration 25 μM; read-out: DE-19bDNA EC50

| Structure (SMILES) | EC50 [nM] |
| --- | --- |
| CN(C(=O)Nc1ccc(F)c(F)c1)C1CCCc2[nH]c(=O)c3c(c21)CCOC3 (single isomer, unassigned) [Compound 62, 3-(3,4-Difluorophenyl)-1-methyl-1-(5-oxo-1,4,5,6,7,8,9,10-octahydro-2H-pyrano[3,4-c]quinolin-10-yl)urea] | 1300 |
| CN(C(=O)Nc1ccc(F)c(F)c1)C1CCCc2[nH]c(=O)c3c(c21)CCOC3 (single isomer, unassigned) [Compound 63, 3-(3,4-Difluorophenyl)-1-methyl-1-(5-oxo-1,4,5,6,7,8,9,10-octahydro-2H-pyrano[3,4-c]quinolin-10-yl)urea] | 3100 |
| CN(C(=O)Nc1ccc(F)c(F)c1)C1CCCc2[nH]c(=O)c3c(c21)COCC3 (single isomer, unassigned) [Compound 81, 3-(3,4-Difluorophenyl)-1-methyl-1-(5-oxo-3,4,5,6,7,8,9,10-octahydro-1H-pyrano[4,3-c]quinolin-10-yl)urea] | ≥ 25000 |
| CN(C(=O)Nc1ccc(F)c(F)c1)C1CCCc2[nH]c(=O)c3c(c21)COCC3 (single isomer, unassigned) [Compound 82, 3-(3,4-Difluorophenyl)-1-methyl-1-(5-oxo-3,4,5,6,7,8,9,10-octahydro-1H-pyrano[4,3-c]quinolin-10-yl)urea] | 7300 |
| CN(C(=O)Nc1ccc(F)c(Cl)c1)C1COCc2[nH]c(=O)c3c(c21)COCC3 (single isomer, unassigned) [Compound 83, 3-(3-Chloro-4-fluorophenyl)-1-methyl-1-(5-oxo-4,5,6,7,9,10-hexahydro-1H,3H-dipyrano[3,4-b:3′,4′-d]pyridin-10-yl)urea] | ≥ 25000 |
| CN(C(=O)Nc1ccc(F)c(Cl)c1)C1COCc2[nH]c(=O)c3c(c21)COCC3 (single isomer, unassigned) [Compound 84, 3-(3-Chloro-4-fluorophenyl)-1-methyl-1-(5-oxo-4,5,6,7,9,10-hexahydro-1H,3H-dipyrano[3,4-b:3′,4′-d]pyridin-10-yl)urea] | 830 |
| CN(C(=O)Nc1ccc(F)c(F)c1)C1COCc2[nH]c(=O)c3c(c21)COCC3 (single isomer, unassigned) [Compound 85, 3-(3,4-Difluorophenyl)-1-methyl-1-(5-oxo-1,3,4,5,6,7,9,10-octahydrodipyrano[3,4-b:3′,4′-d]pyridin-10-yl)urea] | 4500 |
| CN(C(=O)Nc1ccc(F)c(F)c1)C1COCc2[nH]c(=O)c3c(c21)COCC3 (single isomer, unassigned) [Compound 86, 3-(3,4-Difluorophenyl)-1-methyl-1-(5-oxo-1,3,4,5,6,7,9,10-octahydrodipyrano[3,4-b:3′,4′-d]pyridin-10-yl)urea] | ≥ 25000 |
| CN(C(=O)Nc1ccc(F)c(Cl)c1)C1COCc2[nH]c(=O)c3c(c21)CCOC3 (single isomer, unassigned) [Compound 91, 3-(3-Chloro-4-fluorophenyl)-1-methyl-1-(6-oxo-1,2,4,5,6,7,9,10-octahydrodipyrano[3,4-b:4′,3′-d]pyridin-1-yl)urea] | 11000 |
| CN(C(=O)Nc1ccc(F)c(Cl)c1)C1COCc2[nH]c(=O)c3c(c21)CCOC3 (single isomer, unassigned) [Compound 92, 3-(3-Chloro-4-fluorophenyl)-1-methyl-1-(6-oxo-1,2,4,5,6,7,9,10-octahydrodipyrano[3,4-b:4′,3′-d]pyridin-1-yl)urea] | 150 |
| CN(C(=O)Nc1ccc(F)c(F)c1)C1COCc2[nH]c(=O)c3c(c21)CCOC3 (single isomer, unassigned) [Compound 93, 3-(3,4-Difluorophenyl)-1-methyl-1-(6-oxo-1,2,4,5,6,7,9,10-octahydrodipyrano[3,4-b:4′,3′-d]pyridin-1-yl)urea] | ≥ 25000 |
| CN(C(=O)Nc1ccc(F)c(F)c1)C1COCc2[nH]c(=O)c3c(c21)CCOC3 (single isomer, unassigned) [Compound 94, 3-(3,4-Difluorophenyl)-1-methyl-1-(6-oxo-1,2,4,5,6,7,9,10-octahydrodipyrano[3,4-b:4′,3′-d]pyridin-1-yl)urea] | 740 |
| CN(C(=O)Nc1cc(Cl)c(F)c(Cl)c1)C1COCc2[nH]c(=O)c3cc(F)ccc3c21 (single isomer, unassigned) [Compound 97, 3-(3,5-Dichloro-4-fluorophenyl)-1-(8-fluoro-6-oxo-1,4,5,6-tetrahydro-2H-pyrano[3,4-c]isoquinolin-1-yl)-1-methylurea] | 3300 |
| CN(C(=O)Nc1cc(Cl)c(F)c(Cl)c1)C1COCc2[nH]c(=O)c3cc(F)ccc3c21 (single isomer, unassigned) [Compound 98, 3-(3,5-Dichloro-4-fluorophenyl)-1-(8-fluoro-6-oxo-1,4,5,6-tetrahydro-2H-pyrano[3,4-c]isoquinolin-1-yl)-1-methylurea] | 30 |
| CC(C)CN(C(=O)Nc1ccc(F)c(F)c1)C1COCc2[nH]c(=O)c3cc(F)ccc3c21 (single isomer, unassigned) [Compound 99, 3-(3,4-Difluorophenyl)-1-(8-fluoro-6-oxo-2,4,5,6-tetrahydro-1H-pyrano[3,4-c]isoquinolin-1-yl)-1-isobutylurea] | 10 |
| CC(C)CN(C(=O)Nc1ccc(F)c(F)c1)C1COCc2[nH]c(=O)c3cc(F)ccc3c21 (single isomer, unassigned) [Compound 100, 3-(3,4-Difluorophenyl)-1-(8-fluoro-6-oxo-2,4,5,6-tetrahydro-1H-pyrano[3,4-c]isoquinolin-1-yl)-1-isobutylurea] | 430 |
| CN(C(=O)Nc1ccc(F)cc1)C1COCc2[nH]c(=O)c3cc(F)c(F)cc3c21 (single isomer, unassigned) [Compound 103, 1-(8,9-Difluoro-6-oxo-1,4,5,6-tetrahydro-2H-pyrano[3,4-c]isoquinolin-1-yl)-3-(4-fluorophenyl)-1-methylurea] | 5300 |

Same assay, conditions: read-out: DE-19bDNA EC50; inhibition of rcDNA formation in HepDE19 cells (HepG2 derived), Tet-free medium, 7 day incubation, Quantigene 2.0 bDNA readout, top concentration 25 μM

| Structure (SMILES) | EC50 [nM] |
| --- | --- |
| CN(C(=O)Nc1ccccc1)C1COCc2[nH]c(=O)c3cc(F)c(F)cc3c21 (single isomer, unassigned) [Compound 101, 1-(8,9-Difluoro-6-oxo-1,4,5,6-tetrahydro-2H-pyrano[3,4-c]isoquinolin-1-yl)-1-methyl-3-phenylurea] | 4700 |
| CN(C(=O)Nc1ccccc1)C1COCc2[nH]c(=O)c3cc(F)c(F)cc3c21 (single isomer, unassigned) [Compound 102, 1-(8,9-Difluoro-6-oxo-1,4,5,6-tetrahydro-2H-pyrano[3,4-c]isoquinolin-1-yl)-1-methyl-3-phenylurea] | 30 |
